Experimental data from US7015309B1 (The Wistar Institute of Anatomy and Biology, priority 1999, dated 2006).
Where two headings read alike, the source gives them in different places. Non-standard residues stand in square brackets, D forms with d. Residues, ends and D or L forms follow the SMILES beside them. No end group written: not given here. ξ: configuration not given here. Ac6c = NC1(C(=O)O)CCCCC1; Dap = NC[C@H](N)C(=O)O; ξDap = NCC(N)C(=O)O

Experiments:
sheep erythrocytes = assay: Hemolytic activity, release of hemoglobin; conditions: for Absorbence at 405 nm: one hour, 39° C.; for toxicity to sheep erythrocytes (in words): 256 μM concentration
Description: To determine whether native and modified pyrrhocoricin peptides were toxic to mammalian cells, several peptides from Example 1 above, a positive control, and a negative control were examined for hemolytic activity. Hemolytic activity was assayed with sheep erythrocytes suspended in Alsever's solution (BioWhittaker, Walkersville, Md.), and diluted with Dulbecco's phosphate-buffered saline, pH 7.2. Thirty μL of a 1% suspension of the red blood cells was incubated with agitation at 39° C. with 30 μL of 40 to 256 μM of each of the following peptides dissolved in phosphate buffered saline for one hour and centrifuged at 1000 g for five minutes. Fifty μL of the supernatant was collected and the release of hemoglobin was detected by measuring the ultraviolet absorbences of triplicate samples of the 40 μM or 256 μM test peptides and the control peptides at 405 nm.

[1] = In vivo toxicity control, uninfected mice; set-up: species or system mice of CD-1 strain; conditions: 50 mg/kg dose, intravenous
[2] = mouse serum, 45-minute digestion, MALDI-MS peak height
Description: (§2) Owing to the fact that the use of diluted serum increases peptide recovery as well as retards the reaction kinetics to a manageable rate, the experiments were conducted using 25% aqueous sera.
(§3) For serum stability studies, 10 μl of an aqueous peptide stock solution containing about 0.8 mg/ml peptide was added to 200 μl 25% aqueous pooled mouse or human serum (Sigma, St. Louis, Mo.), according to the process described in M. F. Powell et al, Pharmacol Res, 10: 1268–1273 (1993). The peptide-serum mixture was thermostated at 37° C. After 0 minutes, 45 minutes, 2 hours and 4 hours, three samples of each peptide were taken and precipitated by the addition of 40 μl 15% aqueous trichloroacetic acid. The samples were stored at 4° C. for 20 minutes and centrifuged. The peptides and some remaining serum proteins were recovered in the supernatant after the trichloroacetic acid precipitation. The supernatants were immediately frozen on dry-ice and 220 μl of each were analyzed on RP-HPLC. A mouse serum and two different batches of the same SIGMA catalog number of human sera (human 1, approximately 1 year old, and human 2, approximately 1 month old) were also used.
(§4) The lyophilized samples were redissolved in 0.1 aqueous TFA and submitted for matrix assisted laser desorption/ionization (MALDI-MS).
(§5) The missing residues are indicated (e.g—C2 means that the C-terminal two residues are cleaved off). […] In Table 4, the relative amounts of the degradation products are estimated based on the MALDI-MS peak heights. 0=not detected; 1=very weak (below 5000), 2=weak (5–10000), 3=medium (10–15000), 4=strong (15000-uncleaved molecular ion at 25–30000), 5=very strong (above uncleaved molecular ion).

[3] = for Degradation product −C1, relative amount / Degradation product −C2, relative amount / Degradation product −C3, relative amount / Degradation product −C6, relative amount / Degradation product −N3, C2, relative amount / Degradation product −N3, relative amount / Degradation product −N5, C2, relative amount / Degradation product −N5, relative amount: 45-minute digestion
Description: as §2, §3, §4, §5

in vitro = conditions: mouse, 25% aqueous pooled mouse serum
Description: as §2, §3, §4, §5

[4] = tested on: Agrobacterium tumefaciens
Description: (§1) Growth inhibition assays were performed using the peptides of Example 1 and the Gram positive microorganisms Micrococcus luteus and Bacillus megaterium, and the Gram negative microorganisms, Escherichia coli D22, Agrobacterium tumefaciens, and Salmonella typhimurium. Anti-bacterial assays were performed in sterilized 96-well plates (Nunc F96 microtiter plates) with a final volume of 100 μl as described in Bulet (1996), cited above. Briefly, 90 μl of a suspension of a midlogarithmic phase bacterial culture at an initial 600 nm UV absorbence of 0.001 in Luria-Bertani rich nutrient medium was added to 10 μl of serially diluted peptides in sterilized water. The final peptide concentrations ranged between 0.15 and 80 μM. The plates were incubated at 30° C. for 24 hours with gentle shaking, and the growth inhibition was measured by recording the increase of the UV absorbence at 600 nm on an SLT Labinstruments 400 ATC microplate reader. The experiments were conducted over a 7-month period.

Bacillus megaterium = tested on: Bacillus megaterium
Description: as §1

Micrococcus luteus = tested on: Micrococcus luteus
Description: as §1

Salmonella typhimurium = tested on: Salmonella typhimurium
Description: as §1

[5] = native glycosylated drosocin; cited from earlier work
bacteria = conditions: cited from earlier work
[6] = within a four-hour period; cited from earlier work
[7] = within a four-hour period; cited from earlier work; remark: listed apart in the source
Escherichia coli D22 = conditions: read-out: IC50 in μM against Escherichia coli D22; 30° C., 24 hours; for Peptide 22 original assay (a)
Description: as §1

COS cells = assay: Direct killing of immortalized COS cells; format: cell-based
Text: In another toxicity assay, COS cell survival was studied for pyrrhocoricin and cecropin B (Bachem Biosciences, King of Prussia, Pa.) as the positive control.

[8] = human 1 serum (approximately 1 year old)
[9] = human 2 serum (approximately 1 month old)

Compound | Degradation product −C1, relative amount [2] | Degradation product −C2, relative amount [2] | Degradation product −C3, relative amount [2] | Degradation product −C6, relative amount [2] | Degradation product −N3, C2, relative amount [2] | Degradation product −N3, relative amount [2] | Degradation product −N5, C2, relative amount [2] | Degradation product −N5, relative amount [2] | Degradation product −C1, relative amount [3, 8] | Degradation product −C2, relative amount [3, 8] | Degradation product −C3, relative amount [3, 8] | Degradation product −C6, relative amount [3, 8] | Degradation product −N3, C2, relative amount [3, 8] | Degradation product −N3, relative amount [3, 8] | Degradation product −N5, C2, relative amount [3, 8] | Degradation product −N5, relative amount [3, 8] | Degradation product −C1, relative amount [3, 9] | Degradation product −C2, relative amount [3, 9] | Degradation product −C3, relative amount [3, 9] | Degradation product −C6, relative amount [3, 9] | further results
CC[C@H](C)[C@H](NC(=O)[C@@H]1CCCN1C(=O)[C@H](CCCNC(=N)N)NC(=O)[C@@H]1CCCN1C(=O)[C@@H]1CCCN1C(=O)[C@@H](NC(=O)[C@@H]1CCCN1C(=O)[C@H](CCCNC(=N)N)NC(=O)[C@@H]1CCCN1C(=O)[C@H](CC(C)C)NC(=O)[C@H](Cc1ccc(O)cc1)NC(=O)[C@H](CO)NC(=O)CNC(=O)[C@H](CCCCN)NC(=O)[C@H](CC(=O)O)NC(=O)C1(N)CCCCC1)[C@@H](C)O)C(=O)N[C@@H](Cc1ccc(O)cc1)C(=O)N[C@@H](CC(N)=O)C(=O)N[C@@H](CCCNC(=N)N)C(=O)NC(CNC(C)=O)C(N)=O (stereo partly drawn) [Peptide 21, 1-aminocyclo-hexane carboxylic acid (Chex)-Pyrrhocoricin-β-acetyl-2,3-diamino propionic amide [Dap(Ac)]] (H-[Ac6c]DKGSYLPRPTPPRPIYNR[ξDap](Ac)-NH2) | 0 | 2 (2=weak (5–10000)) | 0 | 0 | 0 | 0 | 0 | 2 (2=weak (5–10000)) | 0 | 4 (4=strong (15000-uncleaved molecular ion at 25–30000)) | 2 (2=weak (5–10000)) | 0 | 0 | 0 | 1 (1=very weak (below 5000)) | 2 (2=weak (5–10000)) | 0 | 4 (4=strong (15000-uncleaved molecular ion at 25–30000)) | 0 | 0 | Absorbence at 405 nm (sheep erythrocytes; 40 μM peptide): 0.110 ± 0.049; toxicity to sheep erythrocytes (in words) (sheep erythrocytes): completely non-toxic; Absorbence at 405 nm (sheep erythrocytes; 256 μM peptide): 0.143 ± 0.006; toxicity of peptide alone (in words) [1]: Neither Peptides 1 nor 21 [SEQ ID NOS: 6 and 22, respectively] alone showed any toxicity; Degradation product −N3, C2, relative amount [3, 9]: 0; Degradation product −N3, relative amount [3, 9]: 0; Degradation product −N5, C2, relative amount [3, 9]: 1 (1=very weak (below 5000)); Degradation product −N5, relative amount [3, 9]: 2 (2=weak (5–10000)); resistance in human serum compared with Peptide 1 (in words) ([3]; human serum): generally more resistant than Peptide 1; peptide still present (in words) (after 8 hours of digestion, all sera studied): traces; remaining at 8 h (in vitro): 20%
CC[C@H](C)[C@H](NC(=O)[C@@H]1CCCN1C(=O)[C@H](CCCNC(=N)N)NC(=O)[C@@H]1CCCN1C(=O)[C@@H]1CCCN1C(=O)[C@@H](NC(=O)[C@@H]1CCCN1C(=O)[C@H](CCCNC(=N)N)NC(=O)[C@@H]1CCCN1C(=O)[C@H](CC(C)C)NC(=O)[C@H](Cc1ccc(O)cc1)NC(=O)[C@H](CO)NC(=O)CNC(=O)[C@H](CCCCN)NC(=O)[C@H](CC(=O)O)NC(=O)[C@@H](NC(=O)[C@H](CCCNC(=N)N)NC(C)=O)C(C)C)[C@@H](C)O)C(=O)N[C@@H](Cc1ccc(O)cc1)C(=O)N[C@@H](CC(N)=O)C(=O)N[C@@H](CCCNC(=N)N)C(=O)N[C@@H](CNC(C)=O)C(N)=O [Peptide 22] (Ac-RVDKGSYLPRPTPPRPIYNR[Dap](Ac)-NH2) | 0 | 2 (2=weak (5–10000)) | 0 | 0 | 0 | 0 | 0 | 0 | 0 | 5 | 3 (3=medium (10–15000)) | 0 | 1 (1=very weak (below 5000)) | 2 (2=weak (5–10000)) | 2 (2=weak (5–10000)) | 3 (3=medium (10–15000)) | 0 | 5 | 0 | 0 | IC50 [4]: 0.6 µM; IC50 ([4]; 24 h): 2.5 µM; IC50 (Bacillus megaterium; Bacillus): 80 µM; IC50 (Bacillus megaterium; Bacillus, 24 h): 40 µM; IC50 (Micrococcus luteus): 10 µM; IC50 (Micrococcus luteus; 24 h): 10 µM; IC50 (Salmonella typhimurium; murium): 2.5 µM; IC50 (Salmonella typhimurium; murium, 24 h): 2.5 µM; Degradation product −N3, C2, relative amount [3, 9]: 0; Degradation product −N3, relative amount [3, 9]: 2 (2=weak (5–10000)); Degradation product −N5, C2, relative amount [3, 9]: 0; Degradation product −N5, relative amount [3, 9]: 1 (1=very weak (below 5000)); degradation rate compared with other peptides (in words) (25% sera, data not shown): degrades considerably faster than either Peptide 1 or Peptide 21
GKPRPYSPRPTSHPRPIRV [drosocin] | – | – | – | – | – | – | – | – | – | – | – | – | – | – | – | – | – | – | – | – | anti-bacterial activity when injected into mice (in words) [5]: no anti-bacterial activity; time needed to kill bacteria in vitro (bacteria): 12 to 24 h; degradation in diluted human serum (in words) [6]: completely degraded; degradation in diluted mouse serum (in words) [7]: completely degraded
VDKGSYLPRPTPPRPIYNRN-NH2 [Peptide 1] | 2 (2=weak (5–10000)) | 2 (2=weak (5–10000)) | 0 | 0 | 0 | 0 | 0 | 0 | 3 (3=medium (10–15000)) | 4 (4=strong (15000-uncleaved molecular ion at 25–30000)) | 3 (3=medium (10–15000)) | 1 (1=very weak (below 5000)) | 0 | 0 | 0 | 2 (2=weak (5–10000)) | 2 (2=weak (5–10000)) | 2 (2=weak (5–10000)) | 0 | 0 | IC50 ([4]; read-out: IC50 in μM against Agrobacterium tumefaciens, 30° C., 24 hours, for Peptide 22 original assay (a)): < 0.075 µM; IC50 (Bacillus megaterium; read-out: IC50 in μM against Bacillus megaterium, 30° C., 24 hours, for Peptide 22 original assay (a)): 5 µM; IC50 (Escherichia coli D22): < 0.075 µM; IC50 (Micrococcus luteus; read-out: IC50 in μM against Micrococcus luteus, 30° C., 24 hours, for Peptide 22 original assay (a)): 10 µM; IC50 (Salmonella typhimurium; read-out: IC50 in μM against Salmonella typhimurium, 30° C., 24 hours, for Peptide 22 original assay (a)): 0.6 µM; Absorbence at 405 nm (sheep erythrocytes; 40 μM peptide): 0.108 ± 0.015; toxicity to sheep erythrocytes (in words) (sheep erythrocytes): completely non-toxic; Absorbence at 405 nm (sheep erythrocytes; 256 μM peptide): 0.0135 ± 0.005; Cell Count after Treatment (COS cells; 5 μM peptide): 18 ± 4; Cell Count after Treatment (COS cells; 10 μM peptide): 12 ± 4; Cell Count after Treatment (COS cells; 50 μM peptide): 11 ± 1; effect on cell count and rate of proliferation (in words) (COS cells; up to 50 μM/mL concentration): did not change; toxicity of peptide alone (in words) [1]: Neither Peptides 1 nor 21 [SEQ ID NOS: 6 and 22, respectively] alone showed any toxicity; Degradation product −N3, C2, relative amount [3, 9]: 0; Degradation product −N3, relative amount [3, 9]: 0; Degradation product −N5, C2, relative amount [3, 9]: 0; Degradation product −N5, relative amount [3, 9]: 0; remaining at 8 h (in vitro): 20%
